Measured values published in ChEMBL document CHEMBL1201862, “PubChem BioAssay data set” (2004).
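Protocol summary: plate cells (96-well), add compound at 5 concentrations, incubate 48 h, interpolate endpoints linearly. At the GI50, growth is halved.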 Active and inactive are the calls of the source. Cut-off read from the data, not from the text of the source: active = GI50 up to about 1.1 µM and inactive = higher.

How the values were obtained:
Experiment in all cases: DTP human tumour cell line panel, 48 h
[1] = system: EKVX
[2] = system: NCI-H23
[3] = system: M14
[4] = system: OVCAR-5
[5] = system: T47D
[6] = system: MDA-MB-231
[7] = system: SR
[8] = system: HCT-15
[9] = system: SK-MEL-2
[10] = system: SNB-19
[11] = system: UACC-257
[12] = system: HT-29
[13] = system: KM12
[14] = system: BT-549
[15] = system: OVCAR-4
[16] = system: NCI-H460
[17] = system: SN12C
[18] = system: SNB-75
[19] = system: HCT-116
[20] = system: SK-OV-3
[21] = system: Hs-578T
[22] = system: A549
[23] = system: SK-MEL-5
[24] = system: TK-10
[25] = system: MCF7
[26] = system: DU-145
[27] = system: MDA-MB-435
[28] = system: SW-620
[29] = system: A498
[30] = system: IGROV-1
[31] = system: COLO 205
[32] = system: MOLT-4
[33] = system: LOX IMVI
[34] = system: SF-539
[35] = system: RPMI-8226
[36] = system: NCI-H522
[37] = system: UACC-62
[38] = system: K562
[39] = system: SK-MEL-28
[40] = system: 786-0
[41] = system: MDA-N
[42] = system: OVCAR-8
[43] = system: Malme-3M
[44] = system: UO-31
[45] = system: PC-3
[46] = system: NCI-H226
[47] = system: HCC 2998
[48] = system: CCRF-CEM
[49] = system: OVCAR-3
[50] = system: RXF 393
[51] = system: U-251
[52] = system: NCI/ADR-RES
[53] = system: SF-268
[54] = system: HL-60
[55] = system: CAKI-1
[56] = system: ACHN
[57] = system: HOP-62
[58] = system: HOP-92
[59] = system: SF-295

With `COC(=O)NN=C(c1ccc(Cl)cc1)c1ccc(Cl)cc1` the GI50 [1] was > 100 µM (inactive), the GI50 [2] was > 100 µM (inactive) and the GI50 [3] was > 100 µM (inactive). For the same molecule, the GI50 [4] was > 100 µM (inactive), the GI50 [5] was > 100 µM (inactive) and the GI50 [6] was > 100 µM (inactive). For the same molecule, the GI50 [7] was 94.2 µM (inactive), the GI50 [8] was over 100 µM and the GI50 [9] was > 100 µM (inactive). For the same molecule, the GI50 [10] was > 100 µM (inactive), the GI50 [11] was > 100 µM (inactive) and the GI50 [12] was 58.6 µM (inactive). For the same molecule, the GI50 [13] was > 100 µM (inactive), the GI50 [14] was 80.2 µM (inactive) and the GI50 [15] was 40.3 µM (inactive). For the same molecule, the GI50 [16] was > 100 µM (inactive), the GI50 [17] was > 100 µM (inactive) and the GI50 [18] was 87.9 µM (inactive). The GI50 [19] was > 100 µM (inactive), the GI50 [20] was > 100 µM (inactive) and the GI50 [21] was > 100 µM (inactive). The GI50 [22] was 71.1 µM (inactive), the GI50 [23] was > 100 µM (inactive) and the GI50 [24] was 54.2 µM (inactive). For the same molecule, the GI50 [25] was > 100 µM (inactive), the GI50 [26] was 80.7 µM (inactive) and the GI50 [27] was > 100 µM (inactive). The GI50 [28] was > 100 µM (inactive), the GI50 [29] was 17.9 µM (inactive) and the GI50 [30] was 22.9 µM (inactive). For the same molecule, the GI50 [31] was 51.2 µM (inactive), the GI50 [32] was > 100 µM (inactive) and the GI50 [33] was > 100 µM (inactive). The GI50 [34] was 93.8 µM (inactive), the GI50 [35] was > 100 µM (inactive) and the GI50 [36] was > 100 µM (inactive). For the same molecule, the GI50 [37] was > 100 µM (inactive), the GI50 [38] was > 100 µM (inactive) and the GI50 [39] was > 100 µM (inactive). The GI50 [40] was > 100 µM (inactive), the GI50 [41] was > 100 µM (inactive) and the GI50 [42] was > 100 µM (inactive). The GI50 [43] was > 100 µM (inactive), the GI50 [44] was > 100 µM (inactive) and the GI50 [45] was > 100 µM (inactive). For the same molecule, the GI50 [46] was > 100 µM (inactive), the GI50 [47] was > 100 µM (inactive) and the GI50 [48] was 67.6 µM (inactive). The GI50 [49] was > 100 µM (inactive), the GI50 [50] was 22.4 µM (inactive) and the GI50 [51] was > 100 µM (inactive). The GI50 [52] was > 100 µM (inactive), the GI50 [53] was > 100 µM (inactive) and the GI50 [54] was > 100 µM (inactive). For the same molecule, the GI50 [55] was > 100 µM (inactive).

In the case of `Nc1nc(Cl)nc(NCc2ccccc2)n1`, the GI50 [1] is reported as > 100 µM (inactive), the GI50 [2] is reported as > 100 µM (inactive) and the GI50 [3] is reported as > 100 µM (inactive). The GI50 [4] was > 100 µM (inactive), the GI50 [5] was > 100 µM (inactive) and the GI50 [6] was > 100 µM (inactive). For the same molecule, the GI50 [7] was 67.8 µM (inactive), the GI50 [8] was over 100 µM and the GI50 [9] was > 100 µM (inactive). The GI50 [10] was > 100 µM (inactive), the GI50 [56] was > 100 µM (inactive) and the GI50 [11] was > 100 µM (inactive). For the same molecule, the GI50 [12] was > 100 µM (inactive), the GI50 [13] was > 100 µM (inactive) and the GI50 [14] was > 100 µM (inactive). The GI50 [15] was > 100 µM (inactive), the GI50 [16] was > 100 µM (inactive) and the GI50 [17] was > 100 µM (inactive). The GI50 [18] was > 100 µM (inactive), the GI50 [19] was > 100 µM (inactive) and the GI50 [20] was > 100 µM (inactive). The GI50 [21] was > 100 µM (inactive), the GI50 [22] was > 100 µM (inactive) and the GI50 [23] was > 100 µM (inactive). The GI50 [24] was > 100 µM (inactive), the GI50 [25] was > 100 µM (inactive) and the GI50 [26] was > 100 µM (inactive). For the same molecule, the GI50 [27] was > 100 µM (inactive), the GI50 [28] was > 100 µM (inactive) and the GI50 [29] was > 100 µM (inactive). For the same molecule, the GI50 [57] was > 100 µM (inactive), the GI50 [30] was > 100 µM (inactive) and the GI50 [31] was > 100 µM (inactive). For the same molecule, the GI50 [32] was > 100 µM (inactive), the GI50 [33] was > 100 µM (inactive) and the GI50 [34] was > 100 µM (inactive). The GI50 [35] was > 100 µM (inactive), the GI50 [37] was > 100 µM (inactive) and the GI50 [38] was > 100 µM (inactive). The GI50 [39] was > 100 µM (inactive), the GI50 [40] was > 100 µM (inactive) and the GI50 [41] was > 100 µM (inactive). The GI50 [42] was > 100 µM (inactive), the GI50 [43] was > 100 µM (inactive) and the GI50 [45] was > 100 µM (inactive). The GI50 [46] was > 100 µM (inactive), the GI50 [58] was > 100 µM (inactive) and the GI50 [59] was > 100 µM (inactive). For the same molecule, the GI50 [47] was > 100 µM (inactive), the GI50 [48] was > 100 µM (inactive) and the GI50 [49] was > 100 µM (inactive). For the same molecule, the GI50 [50] was > 100 µM (inactive), the GI50 [51] was > 100 µM (inactive) and the GI50 [52] was > 100 µM (inactive). For the same molecule, the GI50 [53] was > 100 µM (inactive), the GI50 [54] was 48 µM (inactive) and the GI50 [55] was > 100 µM (inactive).
